These are literature values, as cited in publication PMC10323144, “Garbage in, garbage out: how reliable training data improved a virtual screening approach against SARS-CoV-2 MPro” (Frontiers in Pharmacology, 2023).

This data set concerns MPro. The note with it: compiled from peer-reviewed sources (287 compounds) ref the 18 original articles; cited from earlier work.
On to `O=c1cc(-c2ccccc2)oc2cc(O)c(O)c(O)c12` [Baicalein], for which the “Class (MPro activity class)” value is 1 (Compounds with IC50 < 10 µM or with a percentage of enzyme inhibition >50% at 10 µM were labelled as ACTIVE).

For the compound `Cc1cc(C#N)cc(C)c1Oc1nc(Nc2ccc(C#N)cc2)nc(N)c1Br` [Etravirine], the “Class (MPro activity class)” value is given as 0 (compounds with IC50 > 20 μM, percentage inhibition <80% at 20 µM or 50 μM, or percentage enzyme inhibition <50% at 10 µM were labelled as INACTIVE).

For the compound `O=c1c(O)c(-c2ccc(O)c(O)c2)oc2cc(O)c(O)c(O)c12` [Quercetagetin], the “Class (MPro activity class)” value was 1 (Compounds with IC50 < 10 µM or with a percentage of enzyme inhibition >50% at 10 µM were labelled as ACTIVE).

Regarding `O=C(CCl)N1CCN(Cc2cccc(Cl)c2)CC1` [MED-COV-4280ac29-15], the “Class (MPro activity class)” value is given as 1 (Compounds with IC50 < 10 µM or with a percentage of enzyme inhibition >50% at 10 µM were labelled as ACTIVE).

Regarding `O=c1[nH]cc(-c2cc(-c3cc(Cl)cc(OCc4ccccc4Cl)c3)c(=O)n(-c3cccnc3)c2)c(=O)[nH]1` [compound 21], the “Class (MPro activity class)” value is reported as 1 (Compounds with IC50 < 10 µM or with a percentage of enzyme inhibition >50% at 10 µM were labelled as ACTIVE).

On to `Cc1csc(C(=O)NN=Cc2cccnc2)c1N` [LASSBio-1891 (14)], for which the “Class (MPro activity class)” value was 0 (compounds with IC50 > 20 μM, percentage inhibition <80% at 20 µM or 50 μM, or percentage enzyme inhibition <50% at 10 µM were labelled as INACTIVE).

For the compound `NS(=O)(=O)CCc1ccccc1CN1CCN(C(=O)CCl)CC1` [MIH-UNI-e573136b-5], the “Class (MPro activity class)” value is 1 (Compounds with IC50 < 10 µM or with a percentage of enzyme inhibition >50% at 10 µM were labelled as ACTIVE).

Regarding `C=C(CC)C(=O)c1ccc(OCC(=O)O)c(Cl)c1Cl` [ethacrynic acid], the “Class (MPro activity class)” value is reported as 0 (compounds with IC50 > 20 μM, percentage inhibition <80% at 20 µM or 50 μM, or percentage enzyme inhibition <50% at 10 µM were labelled as INACTIVE).

`N#Cc1ccccc1-c1cc(-c2cc(Cl)cc(OCCc3ccccc3)c2)c(=O)n(-c2cccnc2)c1` [compound 8]: the “Class (MPro activity class)” value was 1 (Compounds with IC50 < 10 µM or with a percentage of enzyme inhibition >50% at 10 µM were labelled as ACTIVE).

Turning to `Cc1c(-c2ccnn2C)cc(C(=O)NCc2ccc(S(C)(=O)=O)cn2)c(=O)n1-c1cccc(C(F)(F)F)c1` [Alvestat], the “Class (MPro activity class)” value is recorded as 0 (compounds with IC50 > 20 μM, percentage inhibition <80% at 20 µM or 50 μM, or percentage enzyme inhibition <50% at 10 µM were labelled as INACTIVE).

Consider `CN(C)C(=O)c1cc2cnc(Nc3ccc(N4CCNCC4)cn3)nc2n1C1CCCC1` [RIBOCICLIB], for which the “Class (MPro activity class)” value is 0 (compounds with IC50 > 20 μM, percentage inhibition <80% at 20 µM or 50 μM, or percentage enzyme inhibition <50% at 10 µM were labelled as INACTIVE).

As for `CC(C)CC1CN(C(=O)CCl)CCN1Cc1cccc(Cl)c1` (stereo not shown) [DAN-LON-a5fc619e-3], the “Class (MPro activity class)” value was 1 (Compounds with IC50 < 10 µM or with a percentage of enzyme inhibition >50% at 10 µM were labelled as ACTIVE).

For the compound `Cc1cccc(COc2cc(Cl)cc(-c3cc(-c4c[nH]c(=O)[nH]c4=O)cn(-c4cccnc4)c3=O)c2)c1` [compound 17], the “Class (MPro activity class)” value was 1 (Compounds with IC50 < 10 µM or with a percentage of enzyme inhibition >50% at 10 µM were labelled as ACTIVE).

In the case of `CS(=O)(=O)c1ncc(Cl)c(C(=O)Nc2ccccc2Cc2ccccc2)n1` [LON-WEI-ff7b210a-4], the “Class (MPro activity class)” value was 1 (Compounds with IC50 < 10 µM or with a percentage of enzyme inhibition >50% at 10 µM were labelled as ACTIVE).

For the compound `COc1c(O)cc(O)c2c(=O)cc(-c3ccccc3)oc12` [Wogonin], the “Class (MPro activity class)” value was 0 (compounds with IC50 > 20 μM, percentage inhibition <80% at 20 µM or 50 μM, or percentage enzyme inhibition <50% at 10 µM were labelled as INACTIVE).

`O=C(Cn1ccnc1[N+](=O)[O-])NCc1ccccc1` [BENZNIDAZOLE]: the “Class (MPro activity class)” value is 0 (compounds with IC50 > 20 μM, percentage inhibition <80% at 20 µM or 50 μM, or percentage enzyme inhibition <50% at 10 µM were labelled as INACTIVE).

Take `CCNc1ncc(C#N)cc1CN1CCN(C(=O)CCl)CC1` [DAR-DIA-fb20be43-4]: the “Class (MPro activity class)” value is 1 (Compounds with IC50 < 10 µM or with a percentage of enzyme inhibition >50% at 10 µM were labelled as ACTIVE).

With `CC[C@@H]([C@H](C)O)n1ncn(-c2ccc(N3CCN(c4ccc(OC[C@@H]5CO[C@@](Cn6cncn6)(c6ccc(F)cc6F)C5)cc4)CC3)cc2)c1=O` [Posaconazole], the “Class (MPro activity class)” value is 0 (compounds with IC50 > 20 μM, percentage inhibition <80% at 20 µM or 50 μM, or percentage enzyme inhibition <50% at 10 µM were labelled as INACTIVE).

Take MLN9708: the “Class (MPro activity class)” value was 0 (compounds with IC50 > 20 μM, percentage inhibition <80% at 20 µM or 50 μM, or percentage enzyme inhibition <50% at 10 µM were labelled as INACTIVE).

As to `O=C(Oc1cncc(Cl)c1)c1cccc2c1CCN2` [GRL-172], the “Class (MPro activity class)” value is on record as 1 (Compounds with IC50 < 10 µM or with a percentage of enzyme inhibition >50% at 10 µM were labelled as ACTIVE).

For `CNC(=O)[C@H](Cc1c[nH]c2ccccc12)NC(=O)[C@@H](CC(=O)NO)CC(C)C` [Ilomastat], the “Class (MPro activity class)” value was 0 (compounds with IC50 > 20 μM, percentage inhibition <80% at 20 µM or 50 μM, or percentage enzyme inhibition <50% at 10 µM were labelled as INACTIVE).

Take `Nc1ccn([C@H]2C[C@H](O)[C@@H](COP(=O)(O)OP(=O)(O)OP(=O)(O)OP(=O)(O)OC[C@H]3O[C@@H](n4ccc(=O)[nH]c4=O)[C@H](O)[C@@H]3O)O2)c(=O)n1` [denufosol (DB04983), denufosol]: the “Class (MPro activity class)” value is recorded as 0 (compounds with IC50 > 20 μM, percentage inhibition <80% at 20 µM or 50 μM, or percentage enzyme inhibition <50% at 10 µM were labelled as INACTIVE).

Turning to `O=C(CCl)N1CCN(S(=O)(=O)C2=CC[SH]=C2)CC1` [MAK-UNK-d4768348-1], the “Class (MPro activity class)” value is 1 (Compounds with IC50 < 10 µM or with a percentage of enzyme inhibition >50% at 10 µM were labelled as ACTIVE).

As to `CC1=C(C(=O)O)N2C(=O)[C@@H](NC(=O)[C@H](N)c3ccccc3)[C@H]2SC1` [CEPHALEXIN], the “Class (MPro activity class)” value is 0 (compounds with IC50 > 20 μM, percentage inhibition <80% at 20 µM or 50 μM, or percentage enzyme inhibition <50% at 10 µM were labelled as INACTIVE).

Take `COc1cc(CN2CCN(C(=O)CCl)CC2)c2ccccc2c1` [DAR-DIA-fb20be43-7]: the “Class (MPro activity class)” value is recorded as 1 (Compounds with IC50 < 10 µM or with a percentage of enzyme inhibition >50% at 10 µM were labelled as ACTIVE).

In the case of `Nc1cccc(C2CN(C(=O)CCl)Cc3ccccc32)c1` (stereo not shown) [NIR-THE-c331be7a-1], the “Class (MPro activity class)” value was 1 (Compounds with IC50 < 10 µM or with a percentage of enzyme inhibition >50% at 10 µM were labelled as ACTIVE).

As to `O=C(Cn1nnc2ccccc21)N(Cc1ccsc1)c1ccc(-c2ccccc2)cc1` [17a], the “Class (MPro activity class)” value is recorded as 1 (Compounds with IC50 < 10 µM or with a percentage of enzyme inhibition >50% at 10 µM were labelled as ACTIVE).

Consider `O=c1[nH]cc(-c2cc(-c3cc(Cl)cc(OCc4c(F)cccc4F)c3)c(=O)n(-c3cccnc3)c2)c(=O)[nH]1` [compound 20], for which the “Class (MPro activity class)” value is given as 1 (Compounds with IC50 < 10 µM or with a percentage of enzyme inhibition >50% at 10 µM were labelled as ACTIVE).

In the case of `Cc1ccncc1NC(=O)Cc1cccc(Br)c1` [JAN-GHE-83b26c96-12], the “Class (MPro activity class)” value is recorded as 0 (compounds with IC50 > 20 μM, percentage inhibition <80% at 20 µM or 50 μM, or percentage enzyme inhibition <50% at 10 µM were labelled as INACTIVE).

As to `Cc1cc(Nc2cc(CN3CCOCC3)c3nc(C)c(Cc4ccc(Cl)cc4F)n3n2)n[nH]1` [GANDOTINIB], the “Class (MPro activity class)” value is 0 (compounds with IC50 > 20 μM, percentage inhibition <80% at 20 µM or 50 μM, or percentage enzyme inhibition <50% at 10 µM were labelled as INACTIVE).

For `CCn1c(=O)c(-c2cc[nH]n2)cc2c(C)nc(N)nc21` [VOXTALISIB], the “Class (MPro activity class)” value is 0 (compounds with IC50 > 20 μM, percentage inhibition <80% at 20 µM or 50 μM, or percentage enzyme inhibition <50% at 10 µM were labelled as INACTIVE).

Regarding `CC1OC(OCC2OC(OCCc3ccc(O)c(O)c3)C(O)C(OC(=O)C=Cc3ccc(O)c(O)c3)C2O)C(O)C(O)C1O` (stereo not shown) [Forsythoside I], the “Class (MPro activity class)” value is given as 1 (Compounds with IC50 < 10 µM or with a percentage of enzyme inhibition >50% at 10 µM were labelled as ACTIVE).

As to `O=C(Nc1cccnc1)N(CCC1CCCCC1)c1cccc(Cl)c1` [JOR-UNI-2fc98d0b-12], the “Class (MPro activity class)” value is reported as 1 (Compounds with IC50 < 10 µM or with a percentage of enzyme inhibition >50% at 10 µM were labelled as ACTIVE).

As to `O=C(CCl)N1CCN(Cc2cc(Cl)cc(Cl)c2)CC1` [PAU-UNI-8cdd41c7-1], the “Class (MPro activity class)” value is on record as 1 (Compounds with IC50 < 10 µM or with a percentage of enzyme inhibition >50% at 10 µM were labelled as ACTIVE).

With `COc1ccc(C2CC(c3cccs3)=NN2C(=O)CCl)cc1OC` (stereo not shown) [MAT-POS-916a2c5a-1], the “Class (MPro activity class)” value is 1 (Compounds with IC50 < 10 µM or with a percentage of enzyme inhibition >50% at 10 µM were labelled as ACTIVE).

Take `O=C1N(Cc2cccc(Cl)c2)CCN1c1nccc2[nH]ncc12` [ALP-POS-91609ae9-3]: the “Class (MPro activity class)” value was 1 (Compounds with IC50 < 10 µM or with a percentage of enzyme inhibition >50% at 10 µM were labelled as ACTIVE).

For `CCC(C)SSc1ncc[nH]1` (stereo not shown) [PX-12], the “Class (MPro activity class)” value is reported as 0 (compounds with IC50 > 20 μM, percentage inhibition <80% at 20 µM or 50 μM, or percentage enzyme inhibition <50% at 10 µM were labelled as INACTIVE).

For the compound `Cc1cnc(C(=O)N[C@H]2CCCCC/C=C\[C@@H]3C[C@@]3(C(=O)NS(=O)(=O)C3CC3)NC(=O)[C@@H]3C[C@@H](Oc4nc5ccccc5c5ccccc45)CN3C2=O)cn1` [Paritaprevir], the “Class (MPro activity class)” value is recorded as 0 (compounds with IC50 > 20 μM, percentage inhibition <80% at 20 µM or 50 μM, or percentage enzyme inhibition <50% at 10 µM were labelled as INACTIVE).

Consider `CCC(CC)C(NC(C)=O)C1C(N=C(N)N)CC(C(=O)O)C1O` (stereo not shown) [Peramivir], for which the “Class (MPro activity class)” value is listed as 0 (compounds with IC50 > 20 μM, percentage inhibition <80% at 20 µM or 50 μM, or percentage enzyme inhibition <50% at 10 µM were labelled as INACTIVE).

For the compound `O=c1cc(-c2ccc(O)cc2)oc2cc(O)c(O)c(O)c12` [Scutellarein], the “Class (MPro activity class)” value was 1 (Compounds with IC50 < 10 µM or with a percentage of enzyme inhibition >50% at 10 µM were labelled as ACTIVE).
